The values below come from PubChem BioAssay (NCI).

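A five-concentration, 48-hour dose response in 96-well plates underlies each endpoint, interpolated linearly between surrounding concentrations. TGI: concentration producing complete growth inhibition.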

Test systems include A549 NSCLC; EKVX NSCLC; KM12 colon; MDA-MB-231 breast; MDA-N; NCI-H522 lung; OVCAR-4 ovarian; OVCAR-5 ovarian; OVCAR-8 ovarian; RPMI-8226 leukemia; SF-268 CNS; SF-295 CNS; SF-539 CNS; SNB-19 CNS; SNB-75 CNS; SW-620 colon; T-47D breast; UACC-62 melanoma.
Common to all, as to experiment: NCI-60 cell line screen, 48 h

Take `CN(C(=O)Cc1cc(Cl)c(Cl)cc1N=C=S)[C@H]1CCCC[C@@H]1N1CCCC1`: the TGI with A549 NSCLC was found to be 30.6 µM; in the assay with EKVX NSCLC, 31.7 µM; in the assay on KM12 colon it was 29.7 µM; in the assay with MDA-MB-231 breast, 28.6 µM; in the assay on MDA-N, 28.1 µM; in the assay on NCI-H522 lung it was 27.7 µM. Further, the TGI with OVCAR-4 ovarian came out at 26.3 µM; in the assay on OVCAR-5 ovarian, 31.7 µM; in the assay on OVCAR-8 ovarian it was 28.8 µM; in the assay on RPMI-8226 leukemia it was 28 µM; with SF-268 CNS it was 31.4 µM; in the assay with SF-295 CNS, 31.9 µM. Besides, the TGI is 46 µM with SF-539 CNS; 27.4 µM in the assay with SNB-19 CNS; 27.9 µM in the assay on SNB-75 CNS; 23.6 µM in the assay on SW-620 colon; 37.4 µM with T-47D breast; 30.3 µM with UACC-62 melanoma.

Consider `CSc1nc(N)c(NC2OC(CO)C(O)C2O)c(=O)[nH]1` (stereo not given), for which the TGI with A549 NSCLC, in the assay on EKVX NSCLC, in the assay with KM12 colon, in the assay with MDA-MB-231 breast, in the assay with MDA-N and in the assay with NCI-H522 lung was > 100 µM each time. Also, the TGI in the assay with OVCAR-4 ovarian, with OVCAR-5 ovarian, in the assay with OVCAR-8 ovarian, with RPMI-8226 leukemia, with SF-268 CNS and in the assay with SF-295 CNS was > 100 µM each time. Moreover, the TGI in the assay on SF-539 CNS, in the assay on SNB-19 CNS, with SNB-75 CNS, with SW-620 colon, with T-47D breast and in the assay with UACC-62 melanoma was > 100 µM each time.

For the compound `COC(=O)c1ccc2c(O)c(O)ccc2c1`, the TGI in the assay with A549 NSCLC worked out at 42 µM; with EKVX NSCLC it was 53.5 µM; in the assay on KM12 colon it was 30.8 µM; in the assay with MDA-MB-231 breast, 15.4 µM; in the assay with MDA-N it was 3.29 µM; in the assay on NCI-H522 lung, 29.1 µM. Also, the TGI came to 28.3 µM with OVCAR-4 ovarian; 36.5 µM in the assay with OVCAR-5 ovarian; 37.2 µM in the assay on OVCAR-8 ovarian; 61.2 µM with RPMI-8226 leukemia; 33.9 µM in the assay with SF-268 CNS; 17.2 µM in the assay with SF-295 CNS. For the same compound, the TGI in the assay on SF-539 CNS turned out to be 34.2 µM; in the assay on SNB-19 CNS it was 27.5 µM; in the assay on SNB-75 CNS it was 25.4 µM; with SW-620 colon it was 25.3 µM; with T-47D breast it was 42.6 µM; with UACC-62 melanoma it was 29.4 µM.

As for `COC(=O)[C@@H]1CN(C(=O)CCc2ccccc2)C(=O)N1C(=O)OCc1ccccc1`, the TGI in the assay with A549 NSCLC, in the assay on EKVX NSCLC, in the assay with KM12 colon, with MDA-MB-231 breast, in the assay on MDA-N and in the assay on NCI-H522 lung was > 100 µM in each case. In addition, the TGI with OVCAR-4 ovarian, in the assay with OVCAR-5 ovarian, in the assay with OVCAR-8 ovarian, in the assay on RPMI-8226 leukemia, in the assay on SF-268 CNS and in the assay with SF-295 CNS was > 100 µM in each case. The TGI in the assay with SF-539 CNS, with SNB-19 CNS, with SNB-75 CNS, in the assay on SW-620 colon, in the assay on T-47D breast and in the assay on UACC-62 melanoma was > 100 µM in each case.

With `CCC1C(c2cc(OC)c(OC)c(OC)c2)c2cc3c(cc2OC1N1CCCC1)OCO3` (stereo not given), the TGI in the assay with A549 NSCLC is 20.2 µM; in the assay with EKVX NSCLC, 59.8 µM; in the assay on KM12 colon it was 22 µM; with MDA-MB-231 breast it was 20.5 µM; with MDA-N, 0.795 µM; in the assay on NCI-H522 lung, 10.1 µM. Moreover, the TGI in the assay with OVCAR-4 ovarian is > 76 µM; with OVCAR-5 ovarian, 57.4 µM; in the assay on OVCAR-8 ovarian it was 23.9 µM; with RPMI-8226 leukemia, 26.2 µM; in the assay with SF-268 CNS it was 33 µM; in the assay on SF-295 CNS, 8.25 µM. Also, the TGI with SF-539 CNS was found to be 5.53 µM; in the assay on SNB-19 CNS, 24 µM; with SNB-75 CNS it was 31.4 µM; in the assay on SW-620 colon, 45.4 µM; in the assay with T-47D breast, 41.9 µM; in the assay with UACC-62 melanoma it was 23.4 µM.

As to `Cc1c(/C=N/NC(=S)Nc2ccccc2Cl)c(=O)n(-c2ccccc2)n1C`, the TGI in the assay with A549 NSCLC was > 100 µM; with EKVX NSCLC it was > 100 µM; with KM12 colon it was > 100 µM; in the assay with MDA-MB-231 breast, 35.7 µM; in the assay on MDA-N it was > 100 µM; with NCI-H522 lung, 60.9 µM. Besides, the TGI in the assay on OVCAR-4 ovarian was > 100 µM; in the assay with OVCAR-5 ovarian, > 100 µM; with OVCAR-8 ovarian, 84.1 µM; with RPMI-8226 leukemia, > 100 µM; with SF-268 CNS, > 100 µM; with SF-295 CNS, 89.4 µM. For the same compound, the TGI with SF-539 CNS was > 100 µM; with SNB-19 CNS, > 100 µM; with SNB-75 CNS, 54.6 µM; in the assay with SW-620 colon it was > 100 µM; with T-47D breast, > 100 µM; with UACC-62 melanoma, > 100 µM.

For the compound `COc1c2c(cc3oc(C)cc(=O)c13)OC(=N)C(C(N)=O)C2CC(=O)c1ccc(N)cc1` (stereo not given), the TGI in the assay with A549 NSCLC, in the assay on EKVX NSCLC, in the assay on KM12 colon, in the assay with MDA-MB-231 breast, in the assay with MDA-N and with NCI-H522 lung was > 100 µM each time. For the same compound, the TGI with OVCAR-4 ovarian, with OVCAR-5 ovarian, in the assay on OVCAR-8 ovarian, in the assay on RPMI-8226 leukemia, with SF-268 CNS and in the assay on SF-295 CNS was > 100 µM each time. The TGI with SF-539 CNS, in the assay on SNB-19 CNS, in the assay with SNB-75 CNS, in the assay on SW-620 colon, with T-47D breast and with UACC-62 melanoma was > 100 µM throughout.

For the compound `O=C(NCc1cccnc1)NCc1cccnc1`, the TGI with A549 NSCLC, in the assay with EKVX NSCLC, with KM12 colon, in the assay on MDA-MB-231 breast, with MDA-N and in the assay with NCI-H522 lung was > 100 µM in each case. Further, the TGI with OVCAR-4 ovarian, in the assay with OVCAR-5 ovarian, with OVCAR-8 ovarian, in the assay with RPMI-8226 leukemia, with SF-268 CNS and in the assay on SF-295 CNS was > 100 µM in each case. The TGI with SF-539 CNS, with SNB-19 CNS, in the assay on SNB-75 CNS, with SW-620 colon, in the assay with T-47D breast and in the assay with UACC-62 melanoma was > 100 µM in each case.

Regarding `COc1cc(/C=C2/CCS(=O)(=O)c3ccc(C)cc3C2=O)cc(OC)c1OC`, the TGI in the assay with A549 NSCLC is > 42 µM; in the assay with EKVX NSCLC, 30.2 µM; in the assay with KM12 colon, > 41.2 µM; in the assay with MDA-MB-231 breast, 11.2 µM; in the assay with MDA-N it was > 33.3 µM; in the assay on NCI-H522 lung it was 12.4 µM. Also, the TGI in the assay with OVCAR-4 ovarian was > 100 µM; with OVCAR-5 ovarian it was 25.4 µM; in the assay with OVCAR-8 ovarian it was 11.5 µM; with RPMI-8226 leukemia, 6.6 µM; with SF-268 CNS, > 49.2 µM; in the assay with SF-295 CNS, 42.1 µM. Moreover, the TGI with SF-539 CNS was 7.05 µM; in the assay on SNB-19 CNS, > 34.8 µM; in the assay on SNB-75 CNS it was 30 µM; in the assay on SW-620 colon it was > 45.4 µM; with T-47D breast, > 52.7 µM; in the assay with UACC-62 melanoma, 16.8 µM.

`O=C(CN1CCNCCN(CC(=O)N2CCCCC2)CCNCC1)N1CCCCC1`: the TGI with A549 NSCLC, with EKVX NSCLC, with KM12 colon, in the assay on MDA-MB-231 breast, with MDA-N and in the assay with NCI-H522 lung was > 100 µM each time. Besides, the TGI with OVCAR-4 ovarian, with OVCAR-5 ovarian, in the assay with OVCAR-8 ovarian, in the assay on RPMI-8226 leukemia, in the assay on SF-295 CNS and in the assay with SF-539 CNS was > 100 µM each time. Moreover, the TGI in the assay with SNB-19 CNS, with SNB-75 CNS, in the assay with SW-620 colon, in the assay with T-47D breast and in the assay with UACC-62 melanoma was > 100 µM throughout.

In the case of `CCCCCC/C=C\CCCCCCCCCc1cccc(O)c1C(=O)O`, the TGI in the assay on A549 NSCLC, with EKVX NSCLC, in the assay on KM12 colon, with MDA-MB-231 breast, in the assay on MDA-N and with NCI-H522 lung was > 100 µM in each case. The TGI with OVCAR-4 ovarian, with OVCAR-5 ovarian, in the assay with OVCAR-8 ovarian, in the assay with RPMI-8226 leukemia, with SF-268 CNS and in the assay with SF-295 CNS was > 100 µM throughout. Moreover, the TGI in the assay on SF-539 CNS, in the assay with SNB-19 CNS, with SNB-75 CNS, in the assay on SW-620 colon, in the assay on T-47D breast and in the assay with UACC-62 melanoma was > 100 µM throughout.

As for `COc1cc(OC)c(OC)cc1/C=N/N=C(\N)NO`, the TGI with A549 NSCLC, with EKVX NSCLC, in the assay with KM12 colon, in the assay on MDA-MB-231 breast, in the assay on MDA-N and in the assay on NCI-H522 lung was > 100 µM in each case. The TGI in the assay with OVCAR-4 ovarian, in the assay on OVCAR-5 ovarian, in the assay on OVCAR-8 ovarian, in the assay on RPMI-8226 leukemia, in the assay on SF-268 CNS and in the assay with SF-295 CNS was > 100 µM in each case. For the same compound, the TGI was > 100 µM in the assay on SF-539 CNS; > 100 µM with SNB-19 CNS; 93.5 µM in the assay with SNB-75 CNS; > 100 µM in the assay with SW-620 colon; > 100 µM in the assay with T-47D breast; > 100 µM in the assay with UACC-62 melanoma.
